{
  "source": "paper PMC11062906",
  "about": "(Nature, 2024)",
  "key": {"BmGr9 [1]": {"biological_target": "T1, BmGr9 (Bombyx mori, UniProt B3GTD7)", "T1 sequence (B3GTD7 entry or part of it)": "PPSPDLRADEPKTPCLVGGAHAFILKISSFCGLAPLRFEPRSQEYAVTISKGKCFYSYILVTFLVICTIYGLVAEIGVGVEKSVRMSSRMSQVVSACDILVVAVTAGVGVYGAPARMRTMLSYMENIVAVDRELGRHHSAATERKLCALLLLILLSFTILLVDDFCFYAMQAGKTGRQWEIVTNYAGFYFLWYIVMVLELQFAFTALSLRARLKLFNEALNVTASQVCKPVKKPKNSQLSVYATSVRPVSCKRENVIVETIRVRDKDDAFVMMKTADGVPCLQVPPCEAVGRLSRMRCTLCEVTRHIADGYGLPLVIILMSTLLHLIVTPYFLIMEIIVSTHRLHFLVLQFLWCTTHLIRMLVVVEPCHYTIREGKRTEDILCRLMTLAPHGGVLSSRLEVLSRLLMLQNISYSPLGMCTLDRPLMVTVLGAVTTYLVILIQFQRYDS", "assay": "Cell-based GCaMP calcium flux assay, wild-type BmGr9"}, "[2]": {"tested_on": "BmGr9 Q443, F444, and Q445 mutants", "assay": "GCaMP assay, L-sorbose on BmGr9 Q443, F444 and Q445 mutants", "assay_type": "cell-based, Bombyx mori", "conditions": "author rebuttal"}, "BmGr9 [3]": {"biological_target": "T1, BmGr9", "conditions": "electrophysiology; ref Sato et al. PNAS, 2011; cited from earlier work"}, "BmGr9 [4]": {"biological_target": "T1, BmGr9", "assay": "Intrinsic tryptophan fluorescence of detergent-solubilized purified BmGr9", "assay_type": "binding", "conditions": "purified BmGr9 in digitonin, n = 4, 95% CI in parentheses"}},
  "note": "Entries after “also recorded” stand apart in the source; their conditions may differ.",
  "data": [
    {"smiles": "O=C(CO)[C@@H](O)[C@H](O)[C@@H](O)CO", "note": "[L-sorbose]", "values": [
      {"measurement": "Activation of BmGr9 (change in fluorescence) by sweet compound", "setting": "BmGr9 [1]; 100 mM sweet compound, HEK293 cells with BmGr9 plus GCaMP vs GCaMP only", "result": "not statistically different than GCaMP alone; also recorded: did not activate BmGr9 significantly"},
      {"measurement": "maximum activity in dose-response", "setting": "BmGr9 [1]; titration, n = 5, vs GCaMP-only control wells", "result": "less than control wells with GCaMP only"},
      {"measurement": "activation of BmGr9 mutants by L-sorbose", "setting": "[2]", "result": "does not appear that L-sorbose can activate any of these BmGr9 mutants"},
      {"measurement": "activation of BmGr9 in oocytes", "setting": "BmGr9 [3]", "result": "not to activate"},
      {"measurement": "Kd", "setting": "BmGr9 [4]; KD (apparent affinity, tryptophan fluorescence)", "result": 63, "unit": "mM"},
      {"measurement": "KD (apparent affinity, tryptophan fluorescence)", "setting": "BmGr9 [4]", "result": "affinity close to that of D-fructose"}
    ]}
  ]
}
